Values after ≈ are worked out from the molar mass of the structure shown.
Key:
[1] = Hemolysis assay with human erythrocyte suspension; type: cell-based; settings: human, washed human erythrocyte suspension, PBS pH 7.4, read-out: degree of hemolysis
Procedure: (§1) Human blood samples were obtained from the Banc de Sang i Teixits de Barcelona (Spain) from the Catalan Department of Health. Blood was deposited in tubes with the anticoagulant EDTA-K3. Blood samples were centrifuged at 3000 rpm and 4 °C for 10 min (Megafuge 2.0 R. Heraeus Instruments, Hanau, Germany) to induce sedimentation. Plasma was extracted with a Pasteur pipette. Next, the residual pellet was washed with PBS at pH 7.4. This procedure was repeated three times to remove residual leukocytes and platelets and to concentrate the erythrocytes. Following the last wash, the erythrocyte suspension was diluted (1:1) in PBS at pH 7.4 to obtain a suitable erythrocyte suspension (cell density of 8 × 10^9 cell/mL).
(§2) The hemolysis assay determined the capability of different compounds to induce the hemolysis of the erythrocyte membrane. Stock solutions of each compound at 1 mg/mL in PBS at pH 7.4 were prepared. Different volumes (10–80 μL) were placed in polystyrene tubes, and an aliquot of 25 µL of the erythrocyte suspensions was added to each tube. The final volume was 1 mL. The tubes were incubated at room temperature under rotatory conditions. Then, the tubes were centrifuged at 10,000 rpm for 5 min. The supernatants’ absorbance at 540 nm (Shimadzu UV-160A, Shimadzu, Duisburg, Germany) was compared with that of the positive (erythrocytes hemolyzed with distilled water) and negative (erythrocyte suspension in PBS at pH 7.4.) controls.
(§3) The degree of hemolysis was determined using the following equation:Hemolysis (%) = 100 × (Abs − Abs0)/(Abs100 − Abs0) where Abs, Abs0 and Abs100 are the absorbance of the test samples, of the suspension treated with isotonic phosphate–buffered saline (PBS) and of the suspension of complete hemolysis treated with distilled water, respectively.

[2] = test system: murine Swiss albino fibroblasts (3T3); test: Cell viability assay, MTT endpoint, 3T3; type: cell-based; settings: Mus musculus, Fibroblast, 3T3, 24 h incubation, 10–250 µg/mL
Procedure: (§4) The murine Swiss albino fibroblasts (3T3), the human breast adenocarcinoma (MCF-7), the human epithelial carcinoma (HeLa) and the squamous cell carcinoma (A431) cell lines were obtained from Celltec UB. Cells were grown in DMEM medium (4.5 g/L glucose) supplemented with 10% (v/v) FBS, 2 mM L-glutamine, 100 U/mL penicillin and 100 µg/mL streptomycin at 37 °C, 5% CO2. Cells were routinely cultured in 75 cm^2 culture flasks and were trypsinized using trypsin–EDTA when the cells reached approximately 80% confluence. The trypan blue assay, which allows for a direct identification and enumeration of the live (unstained) and dead (blue) cells in the cell population, was used to evaluate the viability of the cells in the cell suspension obtained.
(§5) 3T3 (1 × 10^5 cells/mL), A431, HeLa and MCF-7 cells (5 × 10^4 cells/mL) were grown at defined densities in the 60 central wells of a 96-well plate. Cells were incubated for 24 h in 5% CO2 at 37 °C. Then, the spent medium was removed, and cells were incubated for 24 h with their corresponding compound solutions (1 mg/mL) previously diluted in a minimum amount of DMF (dimethylformamide) and then in DMEM medium supplemented with 5% FBS (100 µL) at the required concentration range (10–250 µg/mL). The viability of the cells upon incubation with the lactam derivatives was assayed using 2 different endpoints: NRU and MTT.
(§6) Only living cells can reduce the yellow tetrazolium salt 3-(4,5-dimethyl-2-thiazolyl)-2,5-diphenyltetrazolium bromide (MTT) to insoluble purple formazan crystals. After a 24 h incubation of the cells with their corresponding NPs, the medium was removed and 100 µL of MTT (Sigma-Aldrich, St. Louis, USA) in PBS (5 mg/mL) diluted 1:10 in culture medium without phenol red and without FBS (Lonza, Verviers, Belgium) was added to the cells. After 3 h of incubation, the medium was removed. Thereafter, 100 µL of DMSO (Sigma-Aldrich, St. Louis, MO, USA) was added to each well to dissolve the purple formazan crystals. Agitation and determination of the absorbance of the extracted solution were performed under the same conditions as described in NRU Assay section. Finally, the effect of each treatment was calculated as the percentage of tetrazolium salt’s reduction by viable cells relative to control cells (cells without any treatment).
(§7) The corresponding half-maximal inhibitory concentration (IC50) values for the different formulations as a function of the cell line and endpoint were determined from the fitting of concentration-dependent viability curves. The corresponding selectivity indexes toward tumoral cells were calculated using the following ratio: SI = IC50 (non-tumoral cell line)/IC50 (tumoral cell line) where 3T3 fibroblasts were used as close representative cells under non-tumoral conditions. Moreover, pseudo selectivity indexes toward tumoral cells were calculated considering the discrete cellular responses at the maximum tested concentration (250 µg/mL).

[3] = test system: squamous cell carcinoma (A431) cell line; test: Cell viability assay, MTT endpoint, A431; type: cell-based; settings: for IC50: Homo sapiens, A-431, 24 h; for SI250 (selective toxicity at 250 µg/mL): A431 compared to 3T3, 250 µg/mL, 24 h
Procedure: as §4, §5, §6, §7

[4] = test system: human epithelial carcinoma (HeLa) cell line; test: Cell viability assay, MTT endpoint, HeLa; type: cell-based; settings: for IC50: Homo sapiens, 24 h
Procedure: as §4, §5, §6, §7

[5] = test system: human breast adenocarcinoma (MCF-7) cell line; test: Cell viability assay, MTT endpoint, MCF-7; type: cell-based; settings: for IC50: Homo sapiens, MCF7, 24 h incubation, 10–250 µg/mL
Procedure: as §4, §5, §6, §7

[6] = test system: murine Swiss albino fibroblasts (3T3); test: Cell viability assay, NRU endpoint, 3T3; type: cell-based; settings: Mus musculus, Fibroblast, 3T3, 24 h incubation, 10–250 µg/mL
Procedure: as §4, §5
(§8) The neutral red uptake (NRU) assay is based on the accumulation of dye in the lysosomes of viable cells. After the cells were incubated for 24 h with the corresponding systems, the medium was removed, and the solutions were incubated with the NR dye (Sigma-Aldrich, St. Louis, MO, USA) solution (50 µg/mL) dissolved in the medium, without FBS and without phenol red (Lonza, Verviers, Belgium), for 3 h. Cells were then washed with sterile PBS, followed by the addition of 100 µL of a solution containing 50% absolute ethanol and 1% acetic acid in distilled water to extract the dye. To promote the total dissolution of the dye, plates were placed in a microtiter-plate shaker for 5 min at room temperature. The absorbance of the resulting solutions was measured at 550 nm (Bio-Rad 550 microplate reader, Bio-Rad California, Hercules, CA, USA). Finally, the effect of each treatment was calculated as the percentage of dye uptake by viable cells relative to the control cells (cells without any treatment).
as §7

[7] = test system: squamous cell carcinoma (A431) cell line; test: Cell viability assay, NRU endpoint, A431; type: cell-based; settings: for SI250 (selective toxicity at 250 µg/mL): A431 compared to 3T3, 250 µg/mL, 24 h; for IC50: Homo sapiens, A-431, 24 h, A431, 24 h incubation, 10–250 µg/mL
Procedure: as §4, §5, §8, §7

[8] = test system: human epithelial carcinoma (HeLa) cell line; test: Cell viability assay, NRU endpoint, HeLa; type: cell-based; settings: 24 h incubation, 10–250 µg/mL
Procedure: as §4, §5, §8, §7

[9] = test system: human breast adenocarcinoma (MCF-7) cell line; test: Cell viability assay, NRU endpoint, MCF-7; type: cell-based; settings: for IC50: Homo sapiens, MCF7, 24 h incubation, 10–250 µg/mL
Procedure: as §4, §5, §8, §7

[10] = Cell viability assay, MTT endpoint, cell line not specified; type: cell-based; settings: under discrete conditions, up to 250 µg/mL, read-out: minimum cell viability values
Procedure: as §4
3T3 (1 × 10^5 cells/mL), A431, HeLa and MCF-7 cells (5 × 10^4 cells/mL) were grown at defined densities in the 60 central wells of a 96-well plate. […]
(§9) Only living cells can reduce the yellow tetrazolium salt 3-(4,5-dimethyl-2-thiazolyl)-2,5-diphenyltetrazolium bromide (MTT) to insoluble purple formazan crystals. […] Agitation and determination of the absorbance of the extracted solution were performed under the same conditions as described in NRU Assay section. Finally, the effect of each treatment was calculated as the percentage of tetrazolium salt’s reduction by viable cells relative to control cells (cells without any treatment).

[11] = Cell viability assay, NRU endpoint, cell line not specified; type: cell-based; settings: up to 250 µg/mL, read-out: minimum cell viability values
Procedure: as §4, §5, §8

human erythrocytes = test: Hemolysis assay with human erythrocyte suspension; type: cell-based; settings: 80 µg/mL, PBS pH 7.4
Procedure: as §1, §2, §3

[12] = Cell viability assay, MTT endpoint, 3T3; type: cell-based, murine; settings: mouse, 3T3 fibroblasts, 3T3, 250 µg/mL, 24 h
Procedure: as §4, §5, §6, §7

[13] = Cell viability assay, MTT endpoint, A431; type: cell-based; settings: human, A431 squamous cell carcinoma cells, A431, highest assayed concentration 250 µg/mL, 24 h
Procedure: as §4, §5, §6, §7

[14] = Cell viability assay, MTT endpoint, HeLa; type: cell-based, human; settings: human, HeLa cells, HeLa, 250 µg/mL, 24 h
Procedure: as §4, §5, §6, §7

[15] = test system: 3T3, A431, HeLa and MCF-7 cell lines; test: Cell viability assays (MTT and NRU), endpoint and cell line not specified; type: cell-based; settings: range over cell lines; read-out: lowest IC50 values as a function of cell line
Procedure: as §4, with “The trypan blue assay, which allows for a direct identification and enumeration of the live (unstained) and dead (blue) cells in the cell population, was used to evaluate the viability of the cells in the cell suspension obtained.” left out
The neutral red uptake (NRU) assay is based on the accumulation of dye in the lysosomes of viable cells. […] The absorbance of the resulting solutions was measured at 550 nm (Bio-Rad 550 microplate reader, Bio-Rad California, Hercules, CA, USA). Finally, the effect of each treatment was calculated as the percentage of dye uptake by viable cells relative to the control cells (cells without any treatment).
as §9, with “treatment). […]” for “treatment).”

[16] = A431, 24 h incubation, 10–250 µg/mL
[17] = HeLa, 24 h incubation, 10–250 µg/mL

IC50 [3, 16] [µg/mL] | IC50 [4, 17] [µg/mL] | IC50 ([5]; MTT) [µg/mL] | IC50 [8] [µg/mL] | IC50 [9] [µg/mL] | Compound | hemolysis at 10 µg/mL [1] [%] | hemolysis at 80 µg/mL [1] [%] | IC50 [2] [µg/mL] | IC50 [6] [µg/mL] | SI250 (selective toxicity at 250 µg/mL) [7] | IC50 [7] [µg/mL] | viability at 24 h [10] [%] | viability at 24 h [11] [%] | SI250 (selective toxicity at 250 µg/mL) [3] | also measured
> 250 | > 250 | > 250 | > 250 | > 250 | O=C1CCC(N2CC(CCl)C(Cl)(Cl)C2=O)CC1 (stereo not drawn) [2p] | 0.005 | ~0.07 | > 250 | > 250 | 1.1 | > 250 | 60 to 70 | 100 | – | effect on proliferation of tumor cells ([4]; HeLa, under the assayed conditions): could promote the proliferation; effect on proliferation of tumor cells ([5]; MCF-7, MTT, under the assayed conditions): could promote the proliferation; SI250 (selective toxicity at 250 µg/mL) ([9]; MCF-7 compared to 3T3, 250 µg/mL, 24 h): one
– | – | – | – | – | C[C@@H](Cl)[C@H]1CN(C(C)(C)C)C(=O)C1(Cl)Cl (racemic) [epi-2g, (RS)-1-(tert-Butyl)-3,3-dichloro-4-((RS)-1-chloroethyl)pyrrolidin-2-one] | – | – | – | – | – | – | – | – | – | melting point: 113 to 114 °C
192 (≈ 743 µM) | 195 (≈ 754 µM) | > 250 | > 250 | > 250 | CC(C)(C)N1CC(CCl)C(Cl)(Cl)C1=O (stereo not drawn) [2a, 1-(tert-Butyl)-3,3-dichloro-4-(chloromethyl)pyrrolidin-2-one] | 0.02 | ~0.07 | 172 (≈ 665 µM) | > 250 | 2.2 | – | – | 30 | 3.3 | viability at 24 h, 250 µg/mL [12]: 15%; viability at 24 h, 250 µg/mL [13]: 5%; MTT IC50 A431 [3, 16]: 126 µg/mL; MTT SI A431 ([3]; SI = IC50 (3T3)/IC50 (A431)): 1.4; viability at 24 h, 250 µg/mL [14]: 15%; MTT IC50 Hela [4, 17]: 109 µg/mL; MTT SI HeLa ([4]; SI = IC50 (3T3)/IC50 (HeLa)): < 1; MTT SI MCF7 ([5]; SI = IC50 (3T3)/IC50 (MCF7), MTT): <0.69; IC50 [15]: 100 to 250 µg/mL (≈ 387 to 967 µM)

Compound | IC50 [3, 16] [µg/mL] | IC50 [4, 17] [µg/mL] | IC50 ([5]; MTT) [µg/mL] | IC50 [8] [µg/mL] | IC50 [9] [µg/mL] | hemolysis at 10 µg/mL [1] [%] | hemolysis at 80 µg/mL [1] [%] | IC50 [2] [µg/mL] | IC50 [6] [µg/mL] | SI250 (selective toxicity at 250 µg/mL) [7] | IC50 [7] [µg/mL] | viability at 24 h [10] [%] | viability at 24 h [11] [%] | SI250 (selective toxicity at 250 µg/mL) [3] | also measured
O=C1NCC(CCl)C1(Cl)Cl (stereo not drawn) [2b, 3,3-Dichloro-4-(chloromethyl)pyrrolidin-2-one] | > 250 | > 250 | > 250 | > 250 | > 250 | 0.02 | – | > 250 | > 250 | – | > 250 | 60 to 70 | 80 to 85 | 1.1 | degree of hemolysis (human erythrocytes): remained stable

Source: paper PMC11085086, “Microwave-Assisted Atom Transfer Radical Cyclization in the Synthesis of 3,3-Dichloro-γ- and δ-Lactams from N-Alkenyl-Tethered Trichloroacetamides Catalyzed by RuCl2(PPh3)3 and Their Cytotoxic Evaluation” (Molecules, 2024)
